In US20260271925A1, “DYSREGULATION OF PLANKTONIC BACTERIAL METABOLISM” (Lixa Limited, priority 2023, published 2026):
≈ marks a conversion by molar mass, not a printed value. Each block holds one compound with its values, some of them ahead of it.

How the values were obtained:
S. pneumoniae D39 [1] = test: Resazurin reduction for the evaluation of metabolic activity (Example 2); type: cell-based, Streptococcus pneumoniae; conditions: plus 10 mM D-Lactic acid
Description: (§1) Bacterial strains were maintained as suspensions in 20% (v/v) glycerol/Brain-Heart Infusion at −80° C.
(§2) Aerobic respiration was measured in the presence or absence of D-Lactic acid and the presence or absence of companion antibiotics either following incubation and visual recording of the MIC, or in a separate study. For evaluation after completion of MIC determination, the entire volume of the MIC well (100 μl) was mixed by pipetting up and down, then transferred to the equivalent well of a fluorescence-absorbance suitable 96-well plate. Alternatively, cultures were pipetted together as above and incubated overnight at 37° C. in the absence of any antimicrobial compounds. Culture supernatants were removed, adherent cells washed and then treated by the addition of 100 μL of fresh broth, 50 μL of broth containing 4×the desired concentration of antibiotic and 50 μL containing 4×the desired concentration of D-Lactic acid or vehicle only controls, followed by incubation at 37° C. for a further 18±2 hours. After incubation regimes were completed for both procedures, resazurin reduction was evaluated by adding 10 μl of a 0.02% resazurin solution to every well, and incubating the plates with gentle shaking (40 rpm) for a further 90 minutes at 37° C. 96-well plates and resazurin were protected from light as much as possible.
(§3) Following incubation, the 96-well trays were read on a fluorescence-absorbance spectrophotometer, using an excitation frequency of 565 nm and emission frequency of 590 nm. The value for each well was blanked by subtracting the value of the negative control. Every value was then converted to a ratio with respect to the mean value of the positive controls.

S. pneumoniae D39 [2] = test: Minimum inhibitory concentration by broth microdilution (Example 2); type: cell-based, Streptococcus pneumoniae; conditions: for MIC + 1 mM D-Lactic acid: antibiotic + 1 mM D-Lactic acid; for MIC + 10 mM D-Lactic acid: antibiotic + 10 mM D-Lactic acid; for MIC: antibiotic alone
Description: (§4) Bacterial strains were maintained as suspensions in 20% (v/v) glycerol/Brain-Heart Infusion at −80° C. For use, a loop-full of ice was scraped from the stock and streaked for single colonies on rich media containing 1.8% agar (for Pseudomonas aeruginosa or Klebsiella pneumoniae, Luria-Bertani medium; for Staphylococcus aureus or Streptococcus pneumoniae, Trypticase Soy agar) and incubated overnight at 37° C.
(§5) A standard inoculum was prepared from broth culture. 1 to 3 colonies from an overnight agar culture plate were transferred to 5 ml of broth media and incubated at 37° C. with shaking (200 rpm) until turbidity was greater than that of a 0.5 McFarland Standard (overnight). The following broth media were used: Cation-adjusted Mueller-Hinton broth (caMHB—all strains); Roswell Park Memorial Institute medium (RPMI 1640, phenol red-free—S. aureus); Trypticase Soya Broth (TSB—S. aureus, S. pneumoniae); Todd Hewitt Broth (THB—S. pneumoniae), M63 minimal medium, supplemented with 0.2% glucose (M63—K. pneumoniae).
(§6) The broth culture was diluted in broth to a turbidity equal to a 0.5 McFarland Standard using a spectrophotometer at a wavelength of 620 nm. The 0.5 McFarland Standard was further diluted 1:100 in broth to create the standard inoculum. 50 μl of this standard inoculum was dispensed into every well in the microtitre tray, except the negative controls, where 50 μl of broth was dispensed instead.
(§7) Next, a working concentration at two times the highest target concentration for every antimicrobial was created in broth from stock solutions. 100 μl of this working concentration was pipetted into the first well, and 50 μl of broth media into all other wells. 50 μl of the first well was pipetted out and serially diluted across all wells in the row until the final concentration in the range achieved. 50 μl from the final well was removed and discarded. This produced a concentration range where each well was double the target concentration. All agents were performed in duplicate.
(§8) 96 well trays were incubated at 37° C. for 18±2 hours.

[3] = cited from earlier work
S. aureus 510 (MRSA) [4] = test: Resazurin reduction for the evaluation of metabolic activity (Example 2); type: cell-based, Staphylococcus aureus
Description: as §1, §2, §3

S. aureus 29213 (MSSA) [5] = test: as above; type: cell-based, Staphylococcus aureus; conditions: plus 10 mM D-Lactic acid
Description: as §1, §2, §3

S. aureus 510 (MRSA) [6] = test: Minimum inhibitory concentration by broth microdilution (Example 2); type: cell-based, Staphylococcus aureus; conditions: unit assumed; for MIC + 1 mM D-Lactic acid: antibiotic + 1 mM D-Lactic acid; for MIC + 10 mM D-Lactic acid: antibiotic + 10 mM D-Lactic acid; for MIC: antibiotic alone
Description: as §1
(§9) A standard inoculum was prepared from broth culture.
as §6, §7, §8

S. aureus 29213 (MSSA) [7] = test: as above; type: cell-based, Staphylococcus aureus; conditions: for MIC + 1 mM D-Lactic acid: antibiotic + 1 mM D-Lactic acid; for MIC + 10 mM D-Lactic acid: antibiotic + 10 mM D-Lactic acid
Description: as §1, §9, §6, §7, §8

[8] = system: P. aeruginosa strain WACC91; test: Resazurin reduction of planktonic cultures in M63 (glucose), D- versus L-Lactic acid (Example 3); type: cell-based, Pseudomonas aeruginosa
Description: . Viable cells reduce the blue resazurin dye to the pink, fluorescent resorufin form. Following incubation fluorescence was quantified by excitation wavelength of 540 nm and an emission wavelength of 590 nm using Enspire microplate reader.
P. aeruginosa strain WACC91 was maintained as a suspension in 20% (v/v) glycerol/Brain-Heart Infusion at −80° C. For use, a loop-full of ice was scraped from the stock and streaked for single colonies on LB media containing 1.8% agar and incubated overnight at 37° C. Isolated colonies were looped into 5 mL of LB broth and incubated at 37° C. with shaking until turbidity was greater than that of a 1.0 McFarland Standard (3-4 h).
The broth culture was diluted in M63 minimal media containing 0.2% (w/v) glucose as the sole carbon source to a turbidity equal to a 1.0 McFarland standard using a spectrophotometer at a wavelength of 595 nm. This culture was then diluted 1:100 in M63 (glucose) and 100 μL together with an additional 50 μL was transferred to each well of a 96 well microtitre tray and incubated overnight at 37° C., 5% CO2. D-Lactic acid, L-Lactic acid, or vehicle only (sterile H2O) was then applied by adding 50 μL of appropriate stock solutions diluted in M63 (glucose) and incubating for a further 24 hours at 37° C., 5% CO2. Culture metabolic activity was then determined using resazurin reduction as described above in Example 1.

P. aeruginosa WACC91 = test: Minimum inhibitory concentration by broth microdilution (Example 2); type: cell-based, Pseudomonas aeruginosa; conditions: for MIC + 1 mM D-Lactic acid: antibiotic + 1 mM D-Lactic acid; for MIC + 10 mM D-Lactic acid: antibiotic + 10 mM D-Lactic acid; for MIC: antibiotic alone
Description: as §4, §5, §6, §7, §8

S. aureus MRSA 510 = test: Minimum inhibitory concentration of metal salts by broth microdilution in Trypticase Soya broth (Example 4); type: cell-based, Staphylococcus aureus
Description: Bacterial strains were maintained as suspensions in 20% (v/v) glycerol/Brain-Heart Infusion at −80° C. For use, a loop-full of ice was scraped from the stock and streaked for single colonies on Trypticase Soya agar containing 1.8% agar and incubated overnight at 37° C.
A standard inoculum was prepared from broth culture. One to three colonies from an overnight agar culture plate were transferred to 5 ml of broth media and incubated at 37° C. with shaking (200 rpm) until turbidity was greater than that of a 0.5 McFarland Standard (overnight). All assays were performed in Trypticase Soya broth.
as §6
as §7, with “salt (in aqueous solution)” for “antimicrobial”
as §8

MIC + 1 mM D-Lactic acid (S. pneumoniae D39 [2]): 4.0
MIC + 10 mM D-Lactic acid (S. pneumoniae D39 [2]): 4.0
MIC (S. pneumoniae D39 [2]): >16.0
Compound: CC1(C)S[C@@H]2[C@H](NC(=O)[C@H](N)c3ccccc3)C(=O)N2[C@H]1C(=O)O [ampicillin]
Relative metabolic activity, antibiotic plus D-Lactic acid versus antibiotic only (S. pneumoniae D39 [1]): enhances metabolic activity suppression

Compound: CCC(O)C(=O)O (stereo not drawn) [2-hydroxybutanoic acid]
Water solubility* [3]: 1.93 mol/L

Compound: CN[C@H](CC(C)C)C(=O)N[C@H]1C(=O)N[C@@H](CC(N)=O)C(=O)N[C@H]2C(=O)N[C@H]3C(=O)N[C@H](C(=O)N[C@H](C(=O)O)c4cc(O)cc(O)c4-c4cc3ccc4O)[C@H](O)c3ccc(c(Cl)c3)Oc3cc2cc(c3O[C@@H]2O[C@H](CO)[C@@H](O)[C@H](O)[C@H]2O[C@H]2C[C@](C)(N)[C@H](O)[C@H](C)O2)Oc2ccc(cc2Cl)[C@H]1O [vancomycin]
Relative metabolic activity, antibiotic plus D-Lactic acid versus antibiotic only (S. pneumoniae D39 [1]): enhances metabolic activity suppression
Relative metabolic activity, antibiotic plus D-Lactic acid versus antibiotic only (S. aureus 510 (MRSA) [4]; plus 1.0 mM D-Lactic acid): enhances metabolic activity suppression
Relative metabolic activity, antibiotic plus D-Lactic acid versus antibiotic only (S. aureus 29213 (MSSA) [5]): enhances metabolic activity suppression
MIC + 1 mM D-Lactic acid (S. aureus 510 (MRSA) [6]): 2 µg/mL
MIC + 10 mM D-Lactic acid (S. aureus 510 (MRSA) [6]): 2 µg/mL
MIC (S. aureus 510 (MRSA) [6]): 8 µg/mL (≈ 5.52 µM)
MIC + 1 mM D-Lactic acid (S. aureus 29213 (MSSA) [7]): 4.0
MIC + 10 mM D-Lactic acid (S. aureus 29213 (MSSA) [7]): 2.0

Compound: C[C@H](O)C(=O)O [L-Lactic acid]
breakpoint of metabolic rate (concentration range in which the change of activity is clearest) ([8]; Resazurin reduction in comparison to vehicle-only treatment): No comparable breakpoint is observed
change in metabolic activity ([8]; resorufin fluorescence, same concentrations as D-Lactic acid): No change in metabolic activity

Compound: CN(C)[C@@H]1C(O)=C(C(N)=O)C(=O)[C@@]2(O)C(O)=C3C(=O)c4c(O)cccc4[C@@](C)(O)[C@H]3C[C@@H]12 [tetracycline]
MIC + 1 mM D-Lactic acid (S. aureus 510 (MRSA) [6]): < 0.5 µg/mL
MIC + 10 mM D-Lactic acid (S. aureus 510 (MRSA) [6]): < 0.5 µg/mL
MIC (S. aureus 510 (MRSA) [6]): 1 µg/mL (≈ 2.25 µM)

MIC + 1 mM D-Lactic acid (S. pneumoniae D39 [2]): 0.25
MIC + 10 mM D-Lactic acid (S. pneumoniae D39 [2]): 0.5
MIC (S. pneumoniae D39 [2]): 0.5
MIC + 1 mM D-Lactic acid (S. aureus 510 (MRSA) [6]): 2 µg/mL
MIC + 10 mM D-Lactic acid (S. aureus 510 (MRSA) [6]): 2 µg/mL
MIC (S. aureus 510 (MRSA) [6]): > 4 µg/mL
MIC + 1 mM D-Lactic acid (S. aureus 29213 (MSSA) [7]): 0.5
MIC + 10 mM D-Lactic acid (S. aureus 29213 (MSSA) [7]): 0.5
MIC + 1 mM D-Lactic acid (P. aeruginosa WACC91): <0.5
MIC + 10 mM D-Lactic acid (P. aeruginosa WACC91): <0.5
MIC (P. aeruginosa WACC91): 1.0
Compound: C[C@@H](O)[C@H]1C(=O)N2C(C(=O)O)=C(S[C@@H]3CN[C@H](C(=O)N(C)C)C3)[C@H](C)[C@H]12 [meropenem]
Relative metabolic activity, antibiotic plus D-Lactic acid versus antibiotic only (S. aureus 510 (MRSA) [4]; plus 10 mM D-Lactic acid): enhances metabolic activity suppression
Relative metabolic activity, antibiotic plus D-Lactic acid versus antibiotic only (S. aureus 29213 (MSSA) [5]): enhances metabolic activity suppression

MIC + 1 mM D-Lactic acid (S. aureus 510 (MRSA) [6]): 8 µg/mL
MIC + 10 mM D-Lactic acid (S. aureus 510 (MRSA) [6]): 8 µg/mL
MIC (S. aureus 510 (MRSA) [6]): 16 µg/mL (≈ 28.9 µM)
MIC + 1 mM D-Lactic acid (S. aureus 29213 (MSSA) [7]): 4.0
MIC + 10 mM D-Lactic acid (S. aureus 29213 (MSSA) [7]): 4.0
Compound: CO/N=C(\C(=O)N[C@@H]1C(=O)N2C(C(=O)O)=C(CSc3nc(=O)c(=O)[nH]n3C)CS[C@H]12)c1csc(N)n1 [ceftriaxone]
Relative metabolic activity, antibiotic plus D-Lactic acid versus antibiotic only (S. pneumoniae D39 [1]): enhances metabolic activity suppression
Relative metabolic activity, antibiotic plus D-Lactic acid versus antibiotic only (S. aureus 510 (MRSA) [4]; plus 0.1 mM D-Lactic acid): enhances metabolic activity suppression
Relative metabolic activity, antibiotic plus D-Lactic acid versus antibiotic only (S. aureus 29213 (MSSA) [5]): enhances metabolic activity suppression

MIC + 1 mM D-Lactic acid (P. aeruginosa WACC91): 4.0
MIC + 10 mM D-Lactic acid (P. aeruginosa WACC91): 4.0
MIC (P. aeruginosa WACC91): 8.0
Compound: C[C@H]1[C@H](NC(=O)/C(=N\OC(C)(C)C(=O)O)c2csc(N)n2)C(=O)N1S(=O)(=O)O [aztreonam]

Compound: O=C(O)C(O)c1ccccc1 (stereo not drawn) [2-hydroxy-2-phenylacetic acid]
Water solubility* [3]: 1.14 mol/L

Compound: CCCCC(O)C(=O)O (stereo not drawn) [2-hydroxyhexanoic acid]
Water solubility* [3]: 0.27 mol/L

MIC + 1 mM D-Lactic acid (S. pneumoniae D39 [2]): 0.25
MIC + 10 mM D-Lactic acid (S. pneumoniae D39 [2]): 0.25
MIC (S. pneumoniae D39 [2]): 0.5
MIC + 1 mM D-Lactic acid (S. aureus 29213 (MSSA) [7]): <1.0
MIC + 10 mM D-Lactic acid (S. aureus 29213 (MSSA) [7]): 2.0
Compound: CC1(C)S[C@@H]2[C@H](NC(=O)[C@H](N)c3ccc(O)cc3)C(=O)N2[C@H]1C(=O)O [amoxicillin]
Relative metabolic activity, antibiotic plus D-Lactic acid versus antibiotic only (S. pneumoniae D39 [1]): enhances metabolic activity suppression

Compound: CCCC(O)C(=O)O (stereo not drawn) [2-hydroxypentanoic acid]
Water solubility* [3]: 1.64 mol/L

MIC + 1 mM D-Lactic acid (S. aureus 510 (MRSA) [6]): 2 µg/mL
MIC + 10 mM D-Lactic acid (S. aureus 510 (MRSA) [6]): 2 µg/mL
MIC (S. aureus 510 (MRSA) [6]): > 16 µg/mL
MIC + 1 mM D-Lactic acid (S. aureus 29213 (MSSA) [7]): 0.5
MIC + 10 mM D-Lactic acid (S. aureus 29213 (MSSA) [7]): 0.5
Compound: COc1cccc(OC)c1C(=O)N[C@@H]1C(=O)N2[C@@H]1SC(C)(C)[C@@H]2C(=O)O [methicillin]
Relative metabolic activity, antibiotic plus D-Lactic acid versus antibiotic only (S. aureus 510 (MRSA) [4]; plus 10 mM D-Lactic acid): enhances metabolic activity suppression
Relative metabolic activity, antibiotic plus D-Lactic acid versus antibiotic only (S. aureus 29213 (MSSA) [5]): enhances metabolic activity suppression

MIC D-Lactate salt (S. aureus MRSA 510; metal ion as D-Lactate salt): 4 mM
MIC (NO3)2 salt (S. aureus MRSA 510; metal ion as nitrate salt): 8 mM
Compound: [Cu+2] [Cu^2+]
